In one series the target is Cytochrome P450 2D6 (Homo sapiens, UniProt P10635). The experiment in a line: Inhibition of human CYP2D6. Format: ADME.
A short description of series [1]: Stability in human liver microsomes assessed as half life. It counts as ADME, Microsome. In general terms: Liver microsomes are vesicles of endoplasmic reticulum, rich in cytochrome P450 enzymes.
Series [2] is described as follows: Stability in mouse liver microsomes assessed as half life. Format: ADME, Microsome.
The target in series [3] is T1, Cytochrome P450 2B6 (Homo sapiens, UniProt P20813).
T1 sequence (P20813 whole entry): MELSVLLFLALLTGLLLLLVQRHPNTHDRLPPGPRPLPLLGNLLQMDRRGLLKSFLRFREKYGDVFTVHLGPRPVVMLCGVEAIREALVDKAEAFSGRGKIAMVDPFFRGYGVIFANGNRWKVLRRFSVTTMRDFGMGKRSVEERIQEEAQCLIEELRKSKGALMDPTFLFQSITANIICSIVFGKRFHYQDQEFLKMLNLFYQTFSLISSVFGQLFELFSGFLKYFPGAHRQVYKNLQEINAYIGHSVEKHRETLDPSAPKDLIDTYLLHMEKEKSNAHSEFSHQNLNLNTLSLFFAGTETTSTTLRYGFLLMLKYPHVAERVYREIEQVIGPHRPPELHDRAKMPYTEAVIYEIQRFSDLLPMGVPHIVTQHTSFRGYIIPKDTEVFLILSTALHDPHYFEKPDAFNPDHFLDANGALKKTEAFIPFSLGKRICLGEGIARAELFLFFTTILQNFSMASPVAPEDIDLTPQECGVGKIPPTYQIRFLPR
The experiment in a line: Inhibition of human CYP2B6. Format: ADME.

The target in another series is Cytochrome P450 2C19 (Homo sapiens, UniProt P33261). The experiment in a line: Inhibition of human CYP2C19. Format: ADME.
Sequence of Cytochrome P450 2C19 (P33261 whole entry): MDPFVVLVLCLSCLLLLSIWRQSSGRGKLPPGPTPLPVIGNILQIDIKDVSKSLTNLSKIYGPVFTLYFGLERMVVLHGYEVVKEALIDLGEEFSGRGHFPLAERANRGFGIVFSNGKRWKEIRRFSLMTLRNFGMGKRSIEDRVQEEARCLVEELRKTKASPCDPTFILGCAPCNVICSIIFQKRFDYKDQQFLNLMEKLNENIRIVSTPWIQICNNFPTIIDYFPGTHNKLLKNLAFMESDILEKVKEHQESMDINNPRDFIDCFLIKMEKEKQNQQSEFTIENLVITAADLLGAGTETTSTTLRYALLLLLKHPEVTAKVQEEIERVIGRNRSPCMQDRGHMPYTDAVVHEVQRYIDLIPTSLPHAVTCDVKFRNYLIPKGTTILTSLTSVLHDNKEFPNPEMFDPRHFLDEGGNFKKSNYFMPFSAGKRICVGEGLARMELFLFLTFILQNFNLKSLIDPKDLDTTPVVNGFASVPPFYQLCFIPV
Series [4] is described as follows: Metabolic stability in mouse liver microsomes assessed as compound remaining at 0.5 uM incubated for 10 mins relative to control. Format: ADME, Microsome. The conditions noted are these: for remaining at 10 min, 0.5 µM: liver microsomes, read-out: Stability.
Series [5] in a line: Stability in dog liver microsomes assessed as half life. Format: ADME, Canis lupus familiaris, Microsome.
Series [6] is described as follows: Stability in monkey liver microsomes assessed as half life. It counts as ADME, Macaca mulatta, Microsome. The conditions noted are these: rhesus monkey.
Series [7] is described as follows: Stability in rat liver microsomes assessed as half life. It counts as ADME, Microsome.
The target of series [8] is T2, Cytochrome P450 2C9 (Homo sapiens, UniProt P11712). The experiment in a line: Inhibition of human CYP2C9. It counts as ADME.
T2 sequence (P11712 whole entry): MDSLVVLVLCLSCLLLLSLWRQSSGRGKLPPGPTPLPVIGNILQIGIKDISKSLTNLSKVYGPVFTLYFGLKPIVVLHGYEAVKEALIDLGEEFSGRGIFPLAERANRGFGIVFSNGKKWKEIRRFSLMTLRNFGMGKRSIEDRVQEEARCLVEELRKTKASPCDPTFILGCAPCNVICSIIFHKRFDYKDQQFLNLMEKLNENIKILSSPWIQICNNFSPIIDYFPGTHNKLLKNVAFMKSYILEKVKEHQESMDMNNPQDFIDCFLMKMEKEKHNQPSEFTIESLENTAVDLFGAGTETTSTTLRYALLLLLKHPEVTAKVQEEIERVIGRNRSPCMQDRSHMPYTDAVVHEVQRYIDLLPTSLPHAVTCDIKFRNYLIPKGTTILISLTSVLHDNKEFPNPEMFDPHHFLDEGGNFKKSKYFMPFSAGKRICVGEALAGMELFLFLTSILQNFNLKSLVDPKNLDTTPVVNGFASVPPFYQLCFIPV
The next series addresses T3, Cytochrome P450 2C8 (Homo sapiens, UniProt P10632).
T3 sequence (P10632 whole entry): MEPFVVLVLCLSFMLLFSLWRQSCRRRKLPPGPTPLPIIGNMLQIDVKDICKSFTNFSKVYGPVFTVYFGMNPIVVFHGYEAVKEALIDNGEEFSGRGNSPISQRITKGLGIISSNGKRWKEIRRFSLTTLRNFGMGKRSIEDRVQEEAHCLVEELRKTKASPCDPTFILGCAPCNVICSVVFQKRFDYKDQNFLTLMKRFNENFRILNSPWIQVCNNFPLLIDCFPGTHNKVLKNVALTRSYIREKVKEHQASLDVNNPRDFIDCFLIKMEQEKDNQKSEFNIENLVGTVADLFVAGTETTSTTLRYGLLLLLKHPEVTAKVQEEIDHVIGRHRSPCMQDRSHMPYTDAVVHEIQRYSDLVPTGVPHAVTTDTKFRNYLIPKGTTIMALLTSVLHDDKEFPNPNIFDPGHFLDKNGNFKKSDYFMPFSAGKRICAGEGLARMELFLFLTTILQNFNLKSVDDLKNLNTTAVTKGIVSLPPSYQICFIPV
Kind of series: Inhibition of human CYP2C8. Format: ADME.

Series [9] addresses Tryptophan 2,3-dioxygenase (Homo sapiens, UniProt P48775). The experiment in a line: Inhibition of TDO (unknown origin) expressed in HEK cells. Format: cell-based.
The next series deals with Cytochrome P450 3A4 (Homo sapiens, UniProt P08684). Kind of series: Inhibition of human CYP3A4. Format: ADME.
Sequence of Cytochrome P450 3A4 (P08684 whole entry): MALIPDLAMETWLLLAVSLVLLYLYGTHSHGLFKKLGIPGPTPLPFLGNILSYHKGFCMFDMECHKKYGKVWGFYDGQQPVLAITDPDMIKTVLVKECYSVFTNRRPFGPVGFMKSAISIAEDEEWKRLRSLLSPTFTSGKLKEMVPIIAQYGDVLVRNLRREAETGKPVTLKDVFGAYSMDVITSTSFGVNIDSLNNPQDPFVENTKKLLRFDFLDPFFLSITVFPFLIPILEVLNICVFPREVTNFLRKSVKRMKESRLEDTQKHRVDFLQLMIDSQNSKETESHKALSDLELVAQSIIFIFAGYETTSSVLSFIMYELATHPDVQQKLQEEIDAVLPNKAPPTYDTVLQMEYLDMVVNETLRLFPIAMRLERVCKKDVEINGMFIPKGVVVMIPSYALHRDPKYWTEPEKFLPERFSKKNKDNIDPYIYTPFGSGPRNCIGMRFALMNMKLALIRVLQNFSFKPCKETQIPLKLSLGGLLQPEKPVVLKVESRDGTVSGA
Series [10] can be described thus: Metabolic stability in human liver microsomes assessed as compound remaining at 0.5 uM incubated for 10 mins relative to control. Format: ADME, Microsome. The conditions noted are these: for remaining at 10 min, 0.5 µM: liver microsomes, read-out: Stability.
Series [11] deals with T2, Cytochrome P450 2C9. The experiment in a line: Inhibition of CYP2C9 (unknown origin). It counts as ADME.
A further series has as its target T4, Cytochrome P450 1A2 (Homo sapiens, UniProt P05177).
T4 sequence (P05177 whole entry): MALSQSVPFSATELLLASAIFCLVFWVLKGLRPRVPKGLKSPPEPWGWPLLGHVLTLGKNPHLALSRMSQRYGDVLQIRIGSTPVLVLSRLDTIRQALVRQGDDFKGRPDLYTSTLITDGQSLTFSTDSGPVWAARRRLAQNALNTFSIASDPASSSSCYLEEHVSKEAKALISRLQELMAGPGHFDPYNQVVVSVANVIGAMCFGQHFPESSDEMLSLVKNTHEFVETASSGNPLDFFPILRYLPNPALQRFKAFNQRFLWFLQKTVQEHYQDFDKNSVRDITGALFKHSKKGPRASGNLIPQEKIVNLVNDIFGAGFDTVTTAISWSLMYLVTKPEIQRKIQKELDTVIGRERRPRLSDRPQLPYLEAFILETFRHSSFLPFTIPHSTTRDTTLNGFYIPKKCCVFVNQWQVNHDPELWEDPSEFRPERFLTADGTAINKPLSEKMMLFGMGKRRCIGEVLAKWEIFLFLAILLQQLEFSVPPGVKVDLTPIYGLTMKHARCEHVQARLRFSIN
The experiment in a line: Inhibition of human CYP1A2. Format: ADME.

Series [12] in a line: Metabolic stability in rat liver microsomes assessed as compound remaining at 0.5 uM incubated for 10 mins relative to control. It counts as ADME, Microsome. Particulars: for remaining at 10 min, 0.5 µM: liver microsomes, read-out: Stability.
The target in series [13] is Indoleamine 2,3-dioxygenase 1 (Homo sapiens, UniProt P14902). Kind of series: Inhibition of IDO1 (unknown origin) expressed in human HeLa cells. It counts as cell-based.
Sequence of Indoleamine 2,3-dioxygenase 1 (P14902 whole entry): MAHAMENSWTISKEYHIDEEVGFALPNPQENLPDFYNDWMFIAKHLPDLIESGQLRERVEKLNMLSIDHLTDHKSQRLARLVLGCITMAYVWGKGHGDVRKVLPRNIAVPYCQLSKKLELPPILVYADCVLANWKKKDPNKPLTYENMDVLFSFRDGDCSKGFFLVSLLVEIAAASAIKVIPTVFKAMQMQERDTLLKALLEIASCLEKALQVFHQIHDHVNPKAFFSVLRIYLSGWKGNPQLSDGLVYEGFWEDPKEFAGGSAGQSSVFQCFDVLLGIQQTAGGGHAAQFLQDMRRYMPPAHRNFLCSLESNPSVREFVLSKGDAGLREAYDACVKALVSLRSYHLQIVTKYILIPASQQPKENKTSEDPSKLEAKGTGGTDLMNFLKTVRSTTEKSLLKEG
Series [14] concerns the target T1, Cytochrome P450 2B6. The experiment in a line: Inhibition of CYP2B6 (unknown origin). It counts as ADME.
The target of series [15] is Voltage-gated inwardly rectifying potassium channel KCNH2 (Homo sapiens, UniProt Q12809). The experiment in a line: (§1) Inhibition of hERG at 10 uM relative to control. It counts as toxicity. The conditions noted are these: 10 µM. A general note: Block of hERG is tested as a sign of cardiac risk.
Sequence of Voltage-gated inwardly rectifying potassium channel KCNH2 (Q12809 whole entry): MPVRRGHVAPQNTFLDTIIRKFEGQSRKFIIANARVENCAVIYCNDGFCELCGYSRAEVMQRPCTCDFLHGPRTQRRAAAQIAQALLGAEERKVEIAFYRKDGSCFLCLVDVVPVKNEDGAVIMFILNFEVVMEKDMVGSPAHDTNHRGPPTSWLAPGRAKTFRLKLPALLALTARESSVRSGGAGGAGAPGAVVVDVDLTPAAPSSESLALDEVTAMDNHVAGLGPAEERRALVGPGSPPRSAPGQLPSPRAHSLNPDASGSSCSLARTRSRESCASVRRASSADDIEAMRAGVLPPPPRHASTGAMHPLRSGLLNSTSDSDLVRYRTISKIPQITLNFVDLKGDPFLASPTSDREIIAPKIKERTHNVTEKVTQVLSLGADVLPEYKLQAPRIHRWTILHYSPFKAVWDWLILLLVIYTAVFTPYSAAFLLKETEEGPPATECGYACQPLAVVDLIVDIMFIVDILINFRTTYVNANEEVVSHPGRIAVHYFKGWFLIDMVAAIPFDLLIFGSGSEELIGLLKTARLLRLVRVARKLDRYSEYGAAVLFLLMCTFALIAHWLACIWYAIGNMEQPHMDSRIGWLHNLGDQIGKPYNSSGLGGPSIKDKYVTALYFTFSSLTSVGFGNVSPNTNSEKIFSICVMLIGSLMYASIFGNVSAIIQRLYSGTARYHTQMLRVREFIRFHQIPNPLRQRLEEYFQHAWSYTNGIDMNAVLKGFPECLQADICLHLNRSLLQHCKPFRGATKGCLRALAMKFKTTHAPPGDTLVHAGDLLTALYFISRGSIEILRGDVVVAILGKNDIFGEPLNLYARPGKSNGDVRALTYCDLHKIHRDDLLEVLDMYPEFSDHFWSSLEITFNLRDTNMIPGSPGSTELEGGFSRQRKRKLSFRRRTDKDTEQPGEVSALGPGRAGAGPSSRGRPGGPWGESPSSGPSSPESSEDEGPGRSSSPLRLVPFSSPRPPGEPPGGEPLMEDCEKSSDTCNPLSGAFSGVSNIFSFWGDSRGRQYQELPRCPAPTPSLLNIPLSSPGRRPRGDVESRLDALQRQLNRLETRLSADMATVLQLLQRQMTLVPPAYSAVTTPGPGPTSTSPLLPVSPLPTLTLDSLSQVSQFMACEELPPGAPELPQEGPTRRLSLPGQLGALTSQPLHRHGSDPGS
In the next series the target is hERG (Homo sapiens, UniProt Q12809). Described as §1. Format: toxicity.

The results in this text go back to ChEMBL document CHEMBL5257092, “Synthesis and biological evaluation of biaryl alkyl ethers as inhibitors of IDO1” (Bioorg Med Chem Lett, 2023).

A word on the pIC50: it is −log10 of the IC50, conventionally taken in molar units. Usually half-life stands for how long it takes for the measured level to halve. Usually inhibition stands for the relative decrease from the control value, in per cent.

pIC50: −log10 of the molar value.

Sequence of Tryptophan 2,3-dioxygenase (P48775 whole entry): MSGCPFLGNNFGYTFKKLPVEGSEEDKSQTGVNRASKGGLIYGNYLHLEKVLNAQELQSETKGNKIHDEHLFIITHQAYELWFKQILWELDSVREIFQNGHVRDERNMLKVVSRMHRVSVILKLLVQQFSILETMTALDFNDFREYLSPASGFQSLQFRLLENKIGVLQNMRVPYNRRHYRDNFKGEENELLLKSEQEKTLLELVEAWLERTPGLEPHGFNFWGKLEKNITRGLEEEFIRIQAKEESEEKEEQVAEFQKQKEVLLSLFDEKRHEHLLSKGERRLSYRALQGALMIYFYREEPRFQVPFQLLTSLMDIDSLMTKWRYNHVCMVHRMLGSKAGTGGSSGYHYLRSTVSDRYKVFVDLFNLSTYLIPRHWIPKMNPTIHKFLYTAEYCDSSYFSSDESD
Sequence of Cytochrome P450 2D6 (P10635 whole entry): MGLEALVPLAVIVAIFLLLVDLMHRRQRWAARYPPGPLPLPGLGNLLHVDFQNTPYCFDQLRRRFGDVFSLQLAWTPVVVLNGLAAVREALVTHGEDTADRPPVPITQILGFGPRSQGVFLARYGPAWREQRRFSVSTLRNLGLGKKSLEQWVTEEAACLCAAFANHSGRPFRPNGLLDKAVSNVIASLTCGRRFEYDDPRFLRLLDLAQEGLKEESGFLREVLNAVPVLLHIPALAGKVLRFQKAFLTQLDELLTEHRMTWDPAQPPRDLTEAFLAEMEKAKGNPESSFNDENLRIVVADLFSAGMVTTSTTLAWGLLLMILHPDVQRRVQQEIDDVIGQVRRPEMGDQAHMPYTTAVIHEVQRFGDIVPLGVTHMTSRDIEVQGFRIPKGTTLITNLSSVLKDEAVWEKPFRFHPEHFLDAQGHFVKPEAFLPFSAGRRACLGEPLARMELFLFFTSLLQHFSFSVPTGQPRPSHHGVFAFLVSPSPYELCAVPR

`Cc1ccc(NC(=O)Nc2cc(-c3ccccc3-c3nnn[nH]3)ccc2N(CC(C)C)CC(C)C)cc1`: the pIC50 was 4.74 against Cytochrome P450 2D6; 4.72 against Cytochrome P450 2B6 [3]; 5.06 against Cytochrome P450 2C19; 5.57 against Cytochrome P450 2C9 [8]; 5.04 on Cytochrome P450 2C8; less than 5.12 in series [9]. For the same molecule, the pIC50 at Cytochrome P450 3A4 was 5.11; against Cytochrome P450 2C9 [11], 5.57; against Cytochrome P450 1A2, 5.02; in series [13] it was 8.15. For the same molecule, the half-life was 9.1 min in series [1]; 6.6 min in series [2]; 11 min in series [5]; 4 min in series [6]; 22 min in series [7]. The remaining at 10 min, 0.5 µM in series [4] was 33%; in [10], 37%; in series [12], 60%.

Turning to `Cc1ccc(NC(=O)Nc2cc(-c3ccccc3-c3nc(=O)[nH]o3)cc3c2OCCCC3c2ccccc2)cc1` (stereo in doubt; 20), the pIC50 was 6.11 against Cytochrome P450 2B6 [14], less than 5.22 in series [9] (hek) and 8.34 in series [13]. Besides, the Stability in [4] (microsomes, 10 min, 0.5 µM) stood at 40%; in series [10] (microsomes, 10 min, 0.5 µM) it was 73%; in series [12] (microsomes, 10 min, 0.5 µM) it was 38%. In addition, in series [15], the “inhibition (INH)” value stood at 18%.

`Cc1ccc(NC(=O)Nc2cc(-c3ccccc3-c3nn[nH]n3)cc3c2OCCCC3c2ccccc2)cc1` (stereo in doubt; 21): the pIC50 on Cytochrome P450 2D6 was less than 4.70; on Cytochrome P450 2B6 [3] it was 4.77; at Cytochrome P450 2C19 it was 5.17; at Cytochrome P450 2C9 [8], 5.43; on Cytochrome P450 2C8 it was 4.74; in series [9] it was less than 5.22. Besides, the pIC50 at Cytochrome P450 3A4 was 5.08; against Cytochrome P450 2C9 [11], 5.43; at Cytochrome P450 1A2 it was less than 4.70; in series [13], 8.44. In addition, the half-life turned out to be 18 min in series [1]; 25 min in [2]; 22 min in series [5]; 7.4 min in [6]; 54 min in series [7]. The remaining at 10 min, 0.5 µM in [4] was 84%; in [10], 70%; in [12] it was 92%. In addition, the inhibition at 10 µM against hERG is 41%.
